Nine molecules from patent US12091402B2 (Avilar Therapeutics, Inc., priority 2021, dated 2024) can be followed below.

Each structure is given as a SMILES string. Like-named read-outs stand apart in the source and are kept apart here. *1 amine or outer side, *2 acyl side, *3 side chain or, on linkers, in order; H or OH if unused. Where a SMILES comes first, the peptide text is derived from it. Bridges are numbered along the chain shown (N, C = ends). [ ]: non-standard residue; d: D form. The star is where a group is joined. X2 = O=C(CCOCC(COCCC(=O)NCCOCCOCCOCCOC[C@H]1OC[C@H](Nc2cncc(C(F)(F)F)n2)[C@@H](O)[C@H]1O)NCC(=O)*)NCCOCCOCCOCCOC[C@H]1OC[C@H](Nc2cncc(C(F)(F)F)n2)[C@@H](O)[C@H]1O; X1 = O=C([C@@H]1C[C@H](N[*:3])CN1[*:1])[*:2] Bounds are passed on as bounds.

For one assay, the target named is IgG. Briefly: Affinity to IgG by surface plasmon resonance (SPR). It is filed as binding. The procedure:
Immobilization levels ranging from 1000-1300 resonance units (RU) are obtained. The running buffer is 10 mM HEPES, pH 7.4, 400 mM NaCl, 0.005% P20, […].

Assay [1] addresses T1, ASGPR receptor on the cell surface (HepG2 cells) (Homo sapiens, UniProt P07306).
T1 construct: host or cells: HepG2
T1 sequence (P07306 1-291): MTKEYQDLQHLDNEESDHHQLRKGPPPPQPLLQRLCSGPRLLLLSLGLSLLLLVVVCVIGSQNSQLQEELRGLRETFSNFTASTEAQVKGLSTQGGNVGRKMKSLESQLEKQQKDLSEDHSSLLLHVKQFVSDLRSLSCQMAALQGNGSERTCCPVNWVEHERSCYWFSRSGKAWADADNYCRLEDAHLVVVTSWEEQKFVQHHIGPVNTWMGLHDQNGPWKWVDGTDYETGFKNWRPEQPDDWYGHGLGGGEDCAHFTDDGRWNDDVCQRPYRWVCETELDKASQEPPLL
T1 sequence (P07307 1-311 partner): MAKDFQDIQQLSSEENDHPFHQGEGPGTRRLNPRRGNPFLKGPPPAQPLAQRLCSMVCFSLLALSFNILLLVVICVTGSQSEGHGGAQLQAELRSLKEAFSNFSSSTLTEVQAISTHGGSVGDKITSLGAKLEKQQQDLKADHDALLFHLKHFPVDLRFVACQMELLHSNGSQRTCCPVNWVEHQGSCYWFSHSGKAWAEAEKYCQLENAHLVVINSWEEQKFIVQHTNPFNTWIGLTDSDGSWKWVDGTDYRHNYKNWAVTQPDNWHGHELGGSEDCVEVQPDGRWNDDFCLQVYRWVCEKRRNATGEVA
Kind of assay: Ternary complex formation assay (flow cytometry, HepG2). It is filed as cell-based. Summed up: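 HepG2 cells (1×10^5/well) incubated 1 h at 4 °C with 100 nM AF488-labeled anti-human IgG plus serial IgG-based degrader, or 100 nM AF488 rabbit anti-DNP plus serial DNP-based degrader. After washing, cell-associated AF488 MFI read by flow cytometry; peak MFI marks optimal degrader concentration for ternary complex.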
(In flow cytometry, cells or beads pass a laser one at a time.)

A further assay deals with HepG2 cells. Briefly: Cellular uptake assay of AF488-labeled antibody (HepG2). It is filed as cell-based. In short, it runs like this:
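HepG2 cells given 100 nM AF488-labeled human IgG or DNP antibody plus serial dilutions of matching degrader (0.1% DMSO final), 6 h at 37° C. Methanol-fixed, DAPI-stained and imaged by high-content analysis. Value is the fraction of AF488-positive cells over total DAPI-counted cells.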

The next assay deals with T2, ASGPR (Homo sapiens, UniProt P07306).
T2 sequence (P07306 1-291): T1 sequence (P07306 1-291)
Briefly: Affinity to ASGPR by surface plasmon resonance (SPR). In general terms: SPR reads the build-up and loss of mass on a sensor chip optically.

Setting [2] is: HepG2 cells, 100 nM AF488-labeled antibody, 37° C. for 6 hours, class symbols, read-out: Uptake Assay EC50.
Setting [3] is: HepG2 cells, read-out: Uptake EC50.
Where [4] appears, read: TCF EC50, HepG2 cells, ternary complex formation.
Where [5] appears, read: HepG2 cells, ternary complex formation, read-out: TCF EC50.

A word on the Kd: it is the constant that tells how readily two partners part at equilibrium. As usually defined, the EC50 is the concentration needed to bring the measured effect to its halfway point.

`CC(C)C[C@@H]1NC(=O)[C@H](Cc2c[nH]cn2)NC(=O)[C@H](Cc2c[nH]c3ccccc23)NC(=O)[C@H](C)NC(=O)[C@@H]2CSSC[C@H](NC(=O)[C@H](Cc3c[nH]c4ccccc34)NC(=O)[C@H](C(C)C)NC(=O)[C@H](CC(C)C)NC(=O)[C@H](CCC(=O)O)NC(=O)CNC1=O)C(=O)N[C@@H]([C@@H](C)O)C(=O)N1CCC[C@@H]1C(=O)N1C[C@@H](NC(=O)CCOCCOCCOCCOCCNC(=O)CCCc3cn(CCCCCC(=O)NC(COCCC(=O)NCCOCCOCCOCCOC[C@H]4OC[C@H](Nc5nccc(C(F)(F)F)n5)[C@@H](O)[C@H]4O)COCCC(=O)NCCOCCOCCOCCOC[C@H]4OC[C@H](Nc5nccc(C(F)(F)F)n5)[C@@H](O)[C@H]4O)nn3)C[C@H]1C(=O)N[C@@H](CC(=O)O)C(=O)N2` [Compound 16]: the Kd at IgG (Biacore 8K, 25° C., IgG on CM5 chip, read-out: IgG SPR Binding Kd) was less than 100 nM; at IgG (SPR, read-out: IgG KD), less than 100 nM; at ASGPR, less than 100 nM; at ASGPR (read-out: ASGPR KD) it was less than 100 nM. Moreover, the EC50 (in assay [1]; in assay [1] (read-out: Ternary Complex EC50); with HepG2 cells (setting [2]); with HepG2 cells (setting [3])) was less than 100 nM each time.
`CC(C)C[C@@H]1NC(=O)[C@H](C)NC(=O)CNC(=O)[C@H](CC(C)C)NC(=O)[C@H](Cc2c[nH]cn2)NC(=O)[C@H](Cc2c[nH]c3ccccc23)NC(=O)[C@H](C)NC(=O)[C@@H]2CSSC[C@H](NC(=O)[C@H](Cc3c[nH]c4ccccc34)NC(=O)[C@H](C(C)C)NC1=O)C(=O)N[C@@H]([C@@H](C)O)C(=O)N1CCC[C@@H]1C(=O)N1C[C@@H](NC(=O)CNC(COCCC(=O)NCCOCCOCCOCCOC[C@H]3OC[C@H](Nc4cncc(C(F)(F)F)n4)[C@@H](O)[C@H]3O)COCCC(=O)NCCOCCOCCOCCOC[C@H]3OC[C@H](Nc4cncc(C(F)(F)F)n4)[C@@H](O)[C@H]3O)C[C@H]1C(=O)N[C@@H](CC(N)=O)C(=O)N2` [Compound 79] (cyclo(ALVWCT[dP][X1](X2)NCAWHLG); disulfide 5-10): the Kd at IgG (SPR, read-out: IgG KD) was less than 100 nM; at ASGPR, less than 100 nM. Moreover, the EC50 (in assay [1] (setting [4]); in the assay on HepG2 cells (setting [3])) was less than 100 nM in each case.
In the case of `CC(C)C[C@@H]1NC(=O)[C@H](Cc2cnc[nH]2)NC(=O)[C@H](Cc2c[nH]c3ccccc23)NC(=O)[C@H](C)NC(=O)[C@@H]2CSSC[C@H](NC(=O)[C@H](Cc3c[nH]c4ccccc34)NC(=O)[C@H](C(C)C)NC(=O)[C@H](CC(C)C)NC(=O)[C@H](CCC(=O)O)NC(=O)CNC1=O)C(=O)N[C@@H]([C@@H](C)O)C(=O)N1CCC[C@@H]1C(=O)N1C[C@@H](NC(=O)COCCOCC(=O)NC[C@H]3OC[C@H](Nc4cncc(C(F)(F)F)n4)[C@@H](O)[C@H]3O)C[C@H]1C(=O)N[C@@H](CC(=O)O)C(=O)N2` [Compound 42], the Kd was less than 100 nM on IgG (SPR, read-out: IgG KD) and less than 100 nM at ASGPR. Further, the EC50 (in assay [1]; in assay [1] (read-out: Ternary Complex EC50); in the assay on HepG2 cells (setting [2]); in the assay on HepG2 cells (setting [3])) was less than 100 nM throughout.
For the molecule `CC(C)C[C@@H]1NC(=O)[C@H](Cc2c[nH]cn2)NC(=O)[C@H](Cc2c[nH]c3ccccc23)NC(=O)[C@H](C)NC(=O)[C@@H](NC(=O)[C@H](CC(=O)O)NCCOCCOCCOCCOCCNC(=O)CCCc2cn(CCCCCC(=O)NC(COCCC(=O)NCCOCCOCCOCCOC[C@H]3OC[C@H](Nc4nccc(C(F)(F)F)n4)[C@@H](O)[C@H]3O)COCCC(=O)NCCOCCOCCOCCOC[C@H]3OC[C@H](Nc4nccc(C(F)(F)F)n4)[C@@H](O)[C@H]3O)nn2)CSSC[C@@H](C(=O)N[C@H](C(N)=O)[C@@H](C)O)NC(=O)[C@H](Cc2c[nH]c3ccccc23)NC(=O)[C@H](C(C)C)NC(=O)[C@H](CC(C)C)NC(=O)[C@H](CCC(=O)O)NC(=O)CNC1=O` [Compound 10], the Kd at IgG (read-out: IgG SPR Binding Kd) and on ASGPR was less than 100 nM each time. In addition, the EC50 (in assay [1]; with HepG2 cells (read-out: Uptake Assay EC50)) was less than 100 nM throughout.
For `CC(C)C[C@@H]1NC(=O)[C@H](C)NC(=O)CNC(=O)[C@H](CC(C)C)NC(=O)[C@H](Cc2cnc[nH]2)NC(=O)[C@H](Cc2c[nH]c3ccccc23)NC(=O)[C@H](C)NC(=O)[C@@H]2CSSC[C@H](NC(=O)[C@H](Cc3c[nH]c4ccccc34)NC(=O)[C@H](C(C)C)NC1=O)C(=O)N[C@@H]([C@@H](C)O)C(=O)N1CCC[C@@H]1C(=O)N1C[C@@H](NC(=O)CNC(COCCC(=O)NCCOCCOCCOCCOC[C@H]3OC[C@H](Nc4cncc(C(F)(F)F)n4)[C@@H](O)[C@H]3O)COCCC(=O)NCCOCCOCCOCCOC[C@H]3OC[C@H](Nc4cncc(C(F)(F)F)n4)[C@@H](O)[C@H]3O)C[C@H]1C(=O)N[C@@H](C)C(=O)N2` [Compound 76] (cyclo(ACAWHLGALVWCT[dP][X1](X2)); disulfide 2-12), the Kd on IgG (SPR, read-out: IgG KD) was less than 100 nM; at ASGPR, less than 100 nM. The EC50 (in assay [1] (setting [4]); with HepG2 cells (setting [3])) was less than 100 nM in each case.
As to `CC(C)C[C@@H]1NC(=O)[C@H](Cc2cnc[nH]2)NC(=O)[C@H](Cc2c[nH]c3ccccc23)NC(=O)[C@H](C)NC(=O)[C@@H]2CSSC[C@H](NC(=O)[C@H](Cc3c[nH]c4ccccc34)NC(=O)[C@H](C(C)C)NC(=O)[C@H](CC(C)C)NC(=O)[C@H](CCC(=O)O)NC(=O)CNC1=O)C(=O)N[C@@H]([C@@H](C)O)C(=O)N1CCC[C@@H]1C(=O)N1C[C@@H](NC(=O)c3ccc4c(c3)C(=O)c3cc(C(=O)NC[C@H]5OC[C@H](Nc6cncc(C(F)(F)F)n6)[C@@H](O)[C@H]5O)ccc3-4)C[C@H]1C(=O)N[C@@H](CC(=O)O)C(=O)N2` [Compound 64], the dissociation constant (Kd) at IgG (SPR, read-out: IgG KD) is less than 100 nM; on ASGPR, less than 100 nM. The EC50 in assay [1] (setting [5]) is less than 100 nM; in the assay on HepG2 cells (setting [3]), 100 to 500 nM.
Regarding `CC(C)C[C@@H]1NC(=O)[C@H](Cc2cnc[nH]2)NC(=O)[C@H](Cc2c[nH]c3ccccc23)NC(=O)[C@H](C)NC(=O)[C@@H]2CSSC[C@H](NC(=O)[C@H](Cc3c[nH]c4ccccc34)NC(=O)[C@H](C(C)C)NC(=O)[C@H](CC(C)C)NC(=O)[C@H](CCC(=O)O)NC(=O)CNC1=O)C(=O)N[C@@H]([C@@H](C)O)C(=O)N1CCC[C@@H]1C(=O)N1C[C@@H](NC(=O)CCN3CCN(CC(=O)NC[C@H]4OC[C@H](Nc5cncc(C(F)(F)F)n5)[C@@H](O)[C@H]4O)CC3)C[C@H]1C(=O)N[C@@H](CC(=O)O)C(=O)N2` [Compound 63], the Kd on IgG (SPR, read-out: IgG KD) was less than 100 nM; on ASGPR it was 100 to 500 nM. Moreover, the EC50 (in assay [1] (setting [5]); in the assay with HepG2 cells (setting [3])) was less than 100 nM each time.
For `CC(C)C[C@@H]1NC(=O)[C@H](Cc2c[nH]cn2)NC(=O)[C@H](Cc2c[nH]c3ccccc23)NC(=O)[C@H](C)NC(=O)[C@@H]2CSSC[C@H](NC(=O)[C@H](Cc3c[nH]c4ccccc34)NC(=O)[C@H](C(C)C)NC(=O)[C@H](CC(C)C)NC(=O)[C@H](CCC(=O)O)NC(=O)CNC1=O)C(=O)N[C@@H]([C@@H](C)O)C(=O)N1CCC[C@@H]1C(=O)N1C[C@@H](NC(=O)c3ccc(N4CCC(CN5CCN(C[C@H]6OC[C@H](Nc7cncc(C(F)(F)F)n7)[C@@H](O)[C@H]6O)CC5)CC4)cc3)C[C@H]1C(=O)N[C@@H](CC(=O)O)C(=O)N2` [Compound 68], the Kd was less than 100 nM at IgG (SPR, read-out: IgG KD) and less than 100 nM on ASGPR. The EC50 (in assay [1]; with HepG2 cells (setting [3])) was less than 100 nM in each case.
As for `CC(C)C[C@@H]1NC(=O)[C@H](Cc2cnc[nH]2)NC(=O)[C@H](Cc2c[nH]c3ccccc23)NC(=O)[C@H](C)NC(=O)[C@@H]2CSSC[C@H](NC(=O)[C@H](Cc3c[nH]c4ccccc34)NC(=O)[C@H](C(C)C)NC(=O)[C@H](CC(C)C)NC(=O)[C@H](CCC(=O)O)NC(=O)CNC1=O)C(=O)N[C@@H]([C@@H](C)O)C(=O)N1CCC[C@@H]1C(=O)N1C[C@@H](NC(=O)CCCc3cn(C[C@H]4OC[C@H](Nc5cncc(C(F)(F)F)n5)[C@@H](O)[C@H]4O)nn3)C[C@H]1C(=O)N[C@@H](CC(=O)O)C(=O)N2` [Compound 51], the Kd was less than 100 nM at IgG (SPR, read-out: IgG KD); less than 100 nM on ASGPR; less than 100 nM at ASGPR (read-out: ASGPR KD, SPR). In addition, the EC50 is less than 100 nM in assay [1] (HepG2 cells, 100 nM AF488-labeled antibody, 1 hour at 4° C., class symbols, read-out: Ternary Complex EC50); less than 100 nM in assay [1] (setting [5]); less than 100 nM in the assay with HepG2 cells (setting [2]); less than 100 nM in the assay with HepG2 cells (setting [3]).
